Strand notation (5' to 3'): a small letter for the sugar, then the base; units joined by * are phosphorothioate-linked, units joined directly phosphodiester-linked; [ ] holds rarer units or linkages, { } end groups; capitals alone tell only the bases. e = 2'-O-(2-methoxyethyl) (MOE); k = constrained ethyl (cEt); [5mC] = 5-methylcytosine; d = 2'-deoxy (DNA); m = 2'-O-methyl
Tested on: Yap1 mRNA
Assay: Antisense inhibition of human Yap1 in SNU-449 cells by modified oligonucleotides, single dose (Example 5, RTS36584)
Assay type: cell-based
In short: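 Values are Yap1 mRNA as percent of untreated control cells, measured by quantitative real-time RT-PCR using RTS36584 and normalised to total RNA by RIBOGREEN. Cells were SNU-449, dosed by free uptake at 2,000 nM for approximately 48 hours.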

[1] = Table 43 experiment, SNU-449 cells, 10,000 cells per well, free uptake, 2,000 nM, approximately 48 hours, RTS36584, Yap1 mRNA normalized to RIBOGREEN, relative to untreated control cells
[2] = Table 46, Yap1 mRNA as percent of untreated control, SNU-449 cells, single dose
[3] = Table 50, Yap1 mRNA remaining as percent of untreated control (UT), SNU-449 cells, single dose
[4] = Table 44 experiment, SNU-449 cells, 10,000 cells per well, free uptake, 2,000 nM, approximately 48 hours, RTS36584, Yap1 mRNA normalized to RIBOGREEN, relative to untreated control cells
[5] = Table 45, Yap1 mRNA as percent of untreated control, SNU-449 cells, single dose
[6] = Yap1 mRNA, percent of untreated control, modified oligonucleotides targeting SEQ ID NO: 1 and 2, Table 47
[7] = Table 41, SNU-449 cells, 10,000 cells per well, free uptake, 2,000 nM modified oligonucleotide, approximately 48 hours, RTS36584, normalized to RIBOGREEN, Yap1 mRNA relative to untreated control cells
[8] = Table 42 (separate experiment), SNU-449 cells, 10,000 cells per well, free uptake, 2,000 nM modified oligonucleotide, approximately 48 hours, RTS36584, normalized to RIBOGREEN, Yap1 mRNA relative to untreated control cells
[9] = Table 39, SNU-449 cells, 10,000 cells per well, free uptake, 2,000 nM oligonucleotide, approx. 48 hours, RTS36584, normalized to RIBOGREEN, Yap1 mRNA relative to untreated control
[10] = Table 49, Yap1 mRNA level relative to untreated control, modified oligonucleotides targeting SEQ ID NO.: 1 and 2
[11] = Table 52, Yap1 mRNA, modified oligonucleotides targeting SEQ ID NO: 1 and 2
[12] = Table 48, Yap1 mRNA level relative to untreated control, modified oligonucleotides targeting SEQ ID NO.: 1 and 2

1198243 (kG*kA*dT*dT*dT*dA*dG*dG*dA*dT*dG*e[5mC]*eA*eT*kG*kG; antisense) [Compound 1198243]
YAP1 (% UTC) [1]: 8 % UTC

1198865 (kA*kA*dT*dA*dT*dT*dG*d[5mC]*dA*dA*dT*k[5mC]*eT*kG*eT*k[5mC]; antisense) [Compound 1198865]
YAP1 (% UT) [2]: 38 % UT

1198621 (kA*kA*kG*dT*dA*dA*dG*dG*dT*dT*dT*d[5mC]*k[5mC]*k[5mC]*kA*eG; antisense) [Compound 1198621]
YAP1 (% UT) [3]: 80 % UT

1198486 (antisense kA*kA*dG*d[5mC]*dA*d[5mC]*dT*dT*dT*dT*dA*e[5mC]*kA*eT*kT*eA) [Compound 1198486]
YAP1 (% UTC) [4]: 39 % UTC

1095510 (antisense k[5mC]*kT*dG*dA*dG*dG*dT*dA*dT*dA*dA*k[5mC]*dT*kG*dG*kG) [Compound 1095510]
YAP1 (% UTC) [5]: 35 % UTC

1198616 (antisense kT*kT*kT*dA*dA*dA*dG*dT*dG*dT*dA*dT*kG*kT*k[5mC]*eA) [Compound 1198616]
YAP1 (% UT) [3]: 16 % UT

1095425 (antisense kT*kG*dA*dG*dG*dT*dA*dT*dA*dA*d[5mC]*kT*eG*kG*eG*k[5mC]) [Compound 1095425]
YAP1 (% UT) [2]: 57 % UT

1198861 (CAACTCTTATATGGTT; chemistry not fully specified) [Compound 1198861]
YAP1 (% UT) [6]: 100 % UT

1198250 (k[5mC]*kT*dT*dA*dT*dA*dT*dG*dG*dT*dT*eT*eT*eG*kT*kG; antisense) [Compound 1198250]
YAP1 (% UTC) [1]: 50 % UTC

1198640 (kT*kT*dA*dG*dA*dG*dT*dA*dT*dG*dT*dG*kG*e[5mC]*kA*eA; antisense) [Compound 1198640]
YAP1 (% UTC) [7]: 26 % UTC

1198603 (antisense kA*kA*kT*dA*dT*dT*dG*d[5mC]*dA*dA*dT*d[5mC]*kT*kG*kT*e[5mC]) [Compound 1198603]
YAP1 (% UT) [3]: 51 % UT

1198458 (kA*kA*dT*dT*dG*dT*d[5mC]*dT*d[5mC]*dA*dT*eG*k[5mC]*e[5mC]*kT*eT) [Compound 1198458]
YAP1 (% UTC) [1]: 30 % UTC

119825 4 (kA*kA*d[5mC]*dT*d[5mC]*dT*dT*dA*dT*dA*dT*eG*eG*eT*kT*kT; antisense)
YAP1 (% UTC) [1]: 95 % UTC

1198942 (k[5mC]*kT*dT*dA*dT*dA*dT*dG*dG*dT*dT*kT*dT*kG*dT*kG; antisense) [Compound 1198942]
YAP1 (% UTC) [5]: 42 % UTC

1198498 (antisense kT*kT*dA*dG*dG*dA*dT*dG*d[5mC]*dA*dT*eG*kG*eT*kT*eT) [Compound 1198498]
YAP1 (% UTC) [4]: 39 % UTC

1198699 (kA*kA*dA*dG*dT*dG*dT*dA*dT*dG*dT*d[5mC]*kA*eG*kA*eA; antisense) [Compound 1198699]
YAP1 (% UTC) [8]: 30 % UTC

1198613 (antisense kA*kA*kA*dG*dT*dG*dT*dA*dT*dG*dT*d[5mC]*kA*kG*kA*eA) [Compound 1198613]
YAP1 (% UT) [3]: 3 % UT

1198407 (kT*dG*d[5mC]*dT*dT*dT*dG*dG*dA*dA*dG*kA*eT*k[5mC]*eT*kG; antisense) [Compound 1198407]
YAP1 (% UTC) [9]: 23 % UTC

1198471 (antisense kA*kT*dA*dT*dT*dA*dG*dA*dG*dT*dA*eT*kG*eT*kG*eG) [Compound 1198471]
YAP1 (% UTC) [1]: 21 % UTC

1198546 (antisense kG*kA*kA*dA*dT*dT*dG*dT*d[5mC]*dT*d[5mC]*dA*kT*kG*k[5mC]*e[5mC]) [Compound 1198546]
YAP1 (% UT) [10]: 11 % UT

1198915 (k[5mC]*kT*dT*dT*dT*dA*d[5mC]*dA*dT*dT*dA*kG*dG*kA*dA*k[5mC]; antisense) [Compound 1198915]
YAP1 (% UTC) [5]: 37 % UTC

1198369 (kT*kT*kA*dG*dA*d[5mC]*dT*dA*dA*dG*dT*dA*kA*eG*kG*eT; antisense) [Compound 1198369]
YAP1 (% UT) [10]: 51 % UT

1095621 (antisense kT*kG*dA*dG*dG*dT*dA*dT*dA*dA*d[5mC]*eT*kG*eG*kG*e[5mC]) [Compound 1095621]
YAP1 (% UTC) [4]: 22 % UTC

1198609 (antisense kT*kT*kT*dA*dT*dG*dT*dA*dA*dT*dA*dT*kT*kG*k[5mC]*eA) [Compound 1198609]
YAP1 (% UT) [3]: 52 % UT

1197185 (antisense kA*kA*kG*d[5mC]*dA*d[5mC]*dT*dT*dT*dT*dA*d[5mC]*dA*kT*kT*kA) [Compound 1197185]
YAP1 (% UT) [6]: 55 % UT

1198462 (antisense kT*kG*dG*dA*dA*dA*dT*dT*dG*dT*d[5mC]*eT*k[5mC]*eA*kT*eG) [Compound 1198462]
YAP1 (% UTC) [1]: 27 % UTC

1009327 (kA*kT*kA*dT*dT*dA*dG*dA*dG*dT*dA*dT*dG*kT*kG*kG; antisense) [Compound 1009327]
YAP1 (% UT) [6]: 27 % UT

1197177 (antisense kA*kT*kT*dG*dT*d[5mC]*dT*d[5mC]*dA*dT*dG*d[5mC]*d[5mC]*kT*kT*kA) [Compound 1197177]
YAP1 (% UT) [6]: 15 % UT

1198469 (antisense kA*kT*dT*dA*dG*dA*dG*dT*dA*dT*dG*eT*kG*eG*k[5mC]*eA) [Compound 1198469]
YAP1 (% UTC) [1]: 23 % UTC

1198491 (antisense k[5mC]*kT*dT*dT*dG*dG*dA*dA*dG*dA*dT*e[5mC]*kT*eG*kA*eA) [Compound 1198491]
YAP1 (% UTC) [4]: 22 % UTC

1198828 (kT*kT*dT*dT*dA*d[5mC]*dA*dT*dT*dA*dG*kG*eA*kA*e[5mC]*kA; antisense) [Compound 1198828]
YAP1 (% UT) [2]: 59 % UT

1198403 (kT*dT*dG*dG*dA*dA*dG*dA*dT*d[5mC]*dT*kG*eA*kA*eA*k[5mC]) [Compound 1198403]
YAP1 (% UTC) [9]: 54 % UTC

1200863 (k[5mC]*kT*kT*dT*dA*mA*dA*dG*dT*dG*dT*dA*dT*kG*kT*k[5mC]; antisense) [Compound 1200863]
YAP1 (% UT) [11]: 41 % UT

1198404 (kT*dT*dT*dG*dG*dA*dA*dG*dA*dT*d[5mC]*kT*eG*kA*eA*kA) [Compound 1198404]
YAP1 (% UTC) [9]: 55 % UTC

1198970 (kT*kA*dA*dG*dT*dA*dA*dG*dG*dT*dT*kT*d[5mC]*k[5mC]*d[5mC]*kA; antisense) [Compound 1198970]
YAP1 (% UTC) [5]: 29 % UTC

1198668 (antisense kA*kT*dA*dG*dT*dG*d[5mC]*dT*dT*dT*dG*dG*kA*eA*kG*eA) [Compound 1198668]
YAP1 (% UTC) [7]: 72 % UTC

1198335 (kT*kT*kA*dT*dA*dT*dG*dG*dT*dT*dT*dT*kG*eT*kG*eT; antisense) [Compound 1198335]
YAP1 (% UT) [10]: 26 % UT

1197217 (antisense kT*kT*kA*dA*dA*dG*dT*dG*dT*dA*dT*dG*dT*k[5mC]*kA*kG) [Compound 1197217]
YAP1 (% UT) [12]: 8 % UT

1200831 (kT*kT*kT*dA*dG*mG*dA*dT*dG*d[5mC]*dA*dT*dG*kG*kT*kT; antisense) [Compound 1200831]
YAP1 (% UT) [11]: 42 % UT

1198571 (antisense kA*kG*k[5mC]*dA*d[5mC]*dT*dT*dT*dT*dA*d[5mC]*dA*kT*kT*kA*eG) [Compound 1198571]
YAP1 (% UT) [10]: 32 % UT

1198331 (k[5mC]*kA*kG*dA*dT*dT*dT*dA*dG*dG*dA*dT*kG*e[5mC]*kA*eT; antisense) [Compound 1198331]
YAP1 (% UT) [12]: 26 % UT

1197298 (kA*kT*kA*dG*mU*dG*d[5mC]*dT*dT*dT*dG*dG*dA*kA*kG*kA) [Compound 1197298]
YAP1 (% UT) (Table 51, Yap1 mRNA remaining as percent of untreated control (UT), SNU-449 cells, single dose): 46 % UT

1198924 (kT*kT*dT*dG*dG*dA*dA*dG*dA*dT*d[5mC]*kT*dG*kA*dA*kA; antisense) [Compound 1198924]
YAP1 (% UTC) [5]: 75 % UTC

1200872 (kA*kG*kA*d[5mC]*dT*mA*dA*dG*dT*dA*dA*dG*dG*kT*kT*kT; antisense) [Compound 1200872]
YAP1 (% UT) [11]: 98 % UT

1198671 (antisense kT*kT*dT*dA*dG*dG*dA*dT*dG*d[5mC]*dA*dT*kG*eG*kT*eT) [Compound 1198671]
YAP1 (% UTC) [7]: 26 % UTC

1198347 (kG*kT*kA*dA*dT*dA*dT*dT*dG*d[5mC]*dA*dA*kT*e[5mC]*kT*eG; antisense) [Compound 1198347]
YAP1 (% UT) [12]: 14 % UT

1198967 (kT*kA*dA*dG*dG*dT*dT*dT*d[5mC]*d[5mC]*d[5mC]*kA*dG*kA*dT*kT; antisense) [Compound 1198967]
YAP1 (% UTC) [5]: 65 % UTC

1198660 (antisense kG*kG*dA*dA*dG*dA*dT*d[5mC]*dT*dG*dA*dA*kA*e[5mC]*kT*e[5mC]) [Compound 1198660]
YAP1 (% UTC) [7]: 66 % UTC

1197189 (antisense kT*kT*kT*dG*dG*dA*dA*dG*dA*dT*d[5mC]*dT*dG*kA*kA*kA) [Compound 1197189]
YAP1 (% UT) [6]: 71 % UT

1198203 (kG*kG*dA*dA*dA*dT*dT*dG*dT*d[5mC]*dT*e[5mC]*eA*eT*kG*k[5mC]; antisense) [Compound 1198203]
YAP1 (% UTC) [8]: 19 % UTC
